Key:
aquatic organisms [1] = experiment: Integration and normalization of release coefficient and HC5 to toxicity coefficient S^i; details: for Toxicity coefficient: Table 4; for Square root (toxicity coefficient S^i): final step of integration and normalization, Table 3
Source text: (7) repeating steps (4) to (6) n times to obtain the release coefficient cs^i and toxic concentration HC5^i of each heavy metal determined in step (2), and integrating and normalizing the release coefficient cs^i and toxic concentration HC5^i of each heavy metal to obtain the toxicity coefficient S^i of the i^th heavy metal;
Preferably, the integrating and normalizing regulation described in step (7) comprises the following calculation steps:
a. calculating the reciprocal of the concentration HC5^i of the i^th heavy metal, and keeping three significant figures for each value obtained;
b. dividing each reciprocal number obtained in step a by the smallest one of them, and keeping three significant figures for each value obtained;
c. multiplying each value obtained in step b by the release coefficient cs^i of the corresponding i^th heavy metal;
d. dividing each value obtained in step c by the smallest one of them, and keeping three significant figures for each value obtained; […]

[2] = Ecological risk assessment of heavy metals in a lake basin sediment; details: for Toxicity response coefficient: Tr^i=S^i*(5/BPI)^x, lake BPI=6.7; for Pollution risk index: ecological risk index Er^i=Tr^i*cf^i for the lake
Source text: (8) calculating the toxicity response coefficient Tr^i of the i^th heavy metal according to the formula Tr^i=S^i*(5/BPI)^X one by one, where BPI is the biological yield index of the water body evaluated and the value of x is 1, ½ or 0;
(9) calculating the ecological risk index Er^i of the i^th heavy metal according to the formula Er^i=Tr^i*cf^i one by one, and the resulting Er^i is used to evaluate the ecological risk of a single metal to the assessed river basin: when Er^i<30, the ecological hazard of the i^th heavy metal to the assessed river basin is slight, when 30≤Er^i<60, the ecological hazard of the i^th heavy metal to the assessed river basin is medium, when 60≤Er^i<120, the ecological hazard of the i^th heavy metal to the assessed river basin is strong, when 120≤Er^i<240, the ecological hazard of the i^th heavy metal to the assessed river basin is very strong, when Er^i>240, the ecological hazard of the i^th heavy metal to the assessed river basin is extremely strong.
Preferably, the ecological assessment method described above also includes the step (10), that is using the formula RI=Σi=1^N Er^i to calculate the total ecological risk comprehensive index RI caused by multiple heavy metal pollutants in the water body and then using RI to evaluate the ecological risk of the assessed river basin: when RI<150, there is a slight ecological hazard in the river basin, when 150≤RI<300, there is a medium ecological hazard in the river basin, when 300≤RI<600, there is a very strong ecological hazard in the river basin, when RI≥600, there is an extremely strong ecological hazard in the river basin.
Preferably, the BPI described in step (8) is the bioproduction index, which is determined by the burning amount and nitrogen content of the sediment samples. BPI indicates the sensitivity of water to heavy metal pollutions, namely the effects of Eh and pH of pore water in sediments, and pH, salinity, and alkalinity of overlying water on the various heavy metals in the water.
Preferably, the value of x described in step (8) is determined by the type of heavy metals that is measured. The toxicity response coefficient of Hg decreases with the increase of BPI, and the relationship between them is linear. Therefore, when the measured metal is Hg, the value of x is 1. The toxicity response coefficient of As is independent of BPI. Therefore, when the measured metal is As, the value of x is 0. The toxicity response coefficient of other heavy metals also decreases with the increase of BPI, but it is not linear. Therefore, when the measured metal is not Hg or As, the value of x is ½.

[3] = cited from earlier work; for Release coefficient: Table 3
aquatic organisms [4] = experiment: Species Sensitivity Distributions (SSD) curve fitting, toxic concentration HC5; set-up: Toxic concentration: unit not given here; details: for Toxic concentration: HC5^i, protects 95% of aquatic organisms, Table 3
Source text: (5) collecting the chronic toxicity data of the i^th heavy metal on aquatic species selected in step (1), performing curve fitting on the collected data, and selecting the curve regression equation with the highest goodness of fit, so as to obtain the best equation for the sensitivity of the i^th heavy metal;
(6) drawing a fitting curve (Species Sensitivity Distributions, SSD) according to the best fitting equation obtained in step (5), and setting the y value of this equation, that is, the cumulative probability to 0.05, and then calculating the corresponding x value, which is the toxic concentration HC5^i of the i^th heavy metal that protects 95% of aquatic organisms;
Preferably, plotting the collected concentration values of toxicity data for different species of organisms against the quantiles arranged in concentration, and selecting the curve equation to fit based on the resulting data point distribution shape. The fitting should adopt several different functions and select the optimal regression curve, so as to avoid the systematic errors introduced by improper selection of functions. When the distribution of the toxicity data points is a common S-type, the fitting curves are preferred to use the log-Normal distribution function, the log-logistic distribution function, the log-triangular distribution function, or a combination thereof. When the distribution of the toxicity data points is different from the common S-type distribution, other curves or non-parametric methods can be used to fit the data points, for example, using the Burr type III distribution function as the regression curve equation of the toxicity data of heavy metals.
Preferably, the goodness of fit described in step (5) is determined by the toxicity data points and the judgment coefficient R^2 of the resulting curve regression equation: when the judgment coefficient R^2 of the curve regression equation gets closer to 1, the goodness of the curve regression equation for the data is higher.
Preferably, the concentration HC5^i of the i^th heavy metal that protects 95% of aquatic organisms described in step (6) is the toxicity data corresponding to the cumulative probability of 5% aquatic organisms on the fitted curve.

Pyrrophyta = details: chronic toxicity, Phytoplankton; cited from earlier work
Protosalanx hyalocranius = details: chronic toxicity, Fishes; cited from earlier work
Bellamya aeruginosa = details: chronic toxicity; Zoobenthos, Bellamya aeruginose; cited from earlier work
Wild lotus = details: chronic toxicity, Hydrophyte; cited from earlier work
Cryptophyta = details: chronic toxicity, Phytoplankton; cited from earlier work
Brachionus calyciflorus = details: chronic toxicity, Zooplankton; cited from earlier work
Coilia nasus taihuensis = details: chronic toxicity, Fishes; cited from earlier work
Arenaceous sanding = details: chronic toxicity, Zooplankton; cited from earlier work
Carp = details: chronic toxicity, Fishes; cited from earlier work
Corbicula fluminea = details: chronic toxicity, Zoobenthos; cited from earlier work
Chironomus = details: chronic toxicity, Zoobenthos; cited from earlier work
Scenedesmus = details: chronic toxicity, Phytoplankton; cited from earlier work
Bosmina = details: chronic toxicity, Zooplankton; cited from earlier work
Duckweed = details: chronic toxicity, Hydrophyte; cited from earlier work
Azolla pinnata = details: chronic toxicity, Hydrophyte; cited from earlier work

| SMILES | Toxicity coefficient (aquatic organisms [1]) | Square root (toxicity coefficient S^i) (aquatic organisms [1]) | Toxicity response coefficient [2] | Pollution risk index [2] | Release coefficient [3] | Toxic concentration (aquatic organisms [4]) | further results |
| --- | --- | --- | --- | --- | --- | --- | --- |
| [As] [As] | 1.50 | 1.5 | 1.50 | 1.05 | 27 | 14.9 |  |
| [Cd] [Cd] | 28.00 | 28 | 24.19 | 18.38 | 200 | 0.3 |  |
| [Cr] [Cr] | 1.00 | 1 | 0.86 | 0.68 | 2 | 2.42 | Toxicity data (NOEC) (Pyrrophyta): 671 µg/kg; Toxicity data (NOEC) (Protosalanx hyalocranius): 4405 µg/kg; Toxicity data (NOEC) (Bellamya aeruginosa): 250 µg/kg; Toxicity data (NOEC) (Wild lotus): 123 µg/kg; Toxicity data (NOEC) (Cryptophyta): 317 µg/kg; Toxicity data (NOEC) (Brachionus calyciflorus): 1789 µg/kg; Toxicity data (NOEC) (Coilia nasus taihuensis): 6941 µg/kg; Toxicity data (NOEC) (Arenaceous sanding): 1500 µg/kg; release coefficient cs^1 ([3]; from the literature): 2×10^−3; Toxicity data (NOEC) (Carp): 23516 µg/kg; Toxicity data (NOEC) (Corbicula fluminea): 1.13 µg/kg; Toxicity data (NOEC) (Chironomus): 20 µg/kg; Toxicity data (NOEC) (Scenedesmus): 8 µg/kg; Toxicity data (NOEC) (Bosmina): 46.5 µg/kg; Toxicity data (NOEC) (Duckweed): 1000 µg/kg; Toxicity data (NOEC) (Azolla pinnata): 625 µg/kg; toxic concentration HC5^i that protects 95% of aquatic organisms (aquatic organisms [4]; cumulative probability 0.05 on log-logistic SSD fit of chronic toxicity data): 2.42 µg/L |
| [Cu] [Cu] | 17.00 | 17 | 14.69 | 26.73 | 200 | 0.89 |  |
| [Hg] [Hg] | 27.00 | 27 | 20.15 | 54.40 | 320 | 0.53 | ecological hazard to the lake ([2]; class by Er^i of single metal): medium (when 30≤Er^i<60, the ecological hazard of the i^th heavy metal to the assessed river basin is medium) |
| [Ni] [Ni] | 5.50 | 5.5 | 4.75 | 3.85 | 147 | 6.03 |  |
| [Pb] [Pb] |  |  |  |  | 71 |  |  |
| [Zn] [Zn] | 2.50 | 2.5 | 2.16 | 2.66 | 57 | 10.83 |  |

— patent US10768161B2, “Method for ecological risk assessment of heavy metal in river basin sediment based on toxicity effect” (CHINESE RESEARCH ACADEMY OF ENV[…], priority 2015, dated 2020)
